Here are results for 7 molecules from patent US8975417B2, “Pyrazolopyrrolidine derivatives and their use in the treatment of disease” (Novartis AG, priority 2013, dated 2015).

Structures are written as SMILES.

The subject of one assay is MV-4-11 cells. The experiment in a line: Cell growth inhibition assay (CellTiter-Glo), MV-4-11. The settings on record: Homo sapiens, MV4-11, read-out: MV-4-11 TGI. In kind it is cell-based. The gist of the method:
(§1)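 Compounds tested as 3-fold dilution series starting at 10 μM (DMSO 0.1% final); viability read by cellular ATP (CTG luminescence) at 37° C. Signal corrected for no-cell background and a day-0 plate, scaled −100% to 100%; four-parameter fitting gives IC50 and TGI.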
(In general: ATP-based viability assays read luminescence as a measure of living cells.)

The next assay relates to THP-1 cells. The experiment in a line: Cell growth inhibition assay (CellTiter-Glo), THP-1. In kind it is cell-based. The settings on record: Homo sapiens, read-out: THP-1 TGI. An outline of the steps: as §1
For assay [1], the target named is His-CREBBP (1081-1197) bromodomain (Homo sapiens (Human), UniProt Q92793). The experiment in a line: AlphaScreen in-vitro binding assay for CREBBP. The settings on record: biochemical. The gist of the method:
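Ni-chelate acceptor and streptavidin donor beads (45 µg/mL each, in 50 mM HEPES pH 7.5, 150 mM NaCl, 0.02% BSA) were then added for 60 min at room temperature. IC50 came from 8-point non-linear regression.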
Background: Alpha assays give light when donor and acceptor beads are brought close together.

Another assay deals with His-Brd4(44-477) (Homo sapiens (Human), UniProt O60885). The experiment in a line: TR-FRET in-vitro binding assay for BRD4. The settings on record: biochemical. An outline of the steps: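 Bromodomain protein (45 nM in its addition solution) and tetra-acetylated histone H4 peptide (AcK5/8/12/16; 60 nM in its addition solution) were incubated with compounds for 35 min at 30 °C in 50 mM HEPES pH 7.5, 50 mM NaCl, 0.005% Tween20, 0.1% BSA. Eu-anti-His6 plus streptavidin-allophycocyanin detection followed, with TR-FRET read-out.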
For orientation: TR-FRET usually uses a lanthanide donor and a delayed reading to cut background.

A further assay has as its system K-562 cells. The experiment in a line: Cell growth inhibition assay (CellTiter-Glo), K-562. In kind it is cell-based, human. The settings on record: Homo sapiens, K562, read-out: K-562 TGI. The gist of the method: as §1

Chain of His-CREBBP (1081-1197) bromodomain (Q92793 1081-1197): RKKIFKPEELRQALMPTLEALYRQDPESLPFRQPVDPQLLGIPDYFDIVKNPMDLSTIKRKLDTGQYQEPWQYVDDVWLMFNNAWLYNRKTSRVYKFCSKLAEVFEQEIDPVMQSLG

By IC50 is commonly meant the concentration that inhibits the measured activity by half. Low readings indicate higher potency, high ones lower potency. Regarding `Cc1cc(N2C(=O)c3c(cnn3C3CC3)C2c2ccc(Cl)cc2)cn(C)c1=O` (centres unmarked) [Example 34, 4-(4-chlorophenyl)-1-cyclopropyl-5-(1,5-dimethyl-6-oxo-1,6-dihydropyridin-3-yl)-4,5-dihydropyrrolo[3,4-c]pyrazol-6(1H)-one], the IC (total growth inhibition) in the assay on MV-4-11 cells is 0.14 µM; in the assay on THP-1 cells, 0.321 µM; in the assay on K-562 cells, greater than 10 µM. Also, the figures for the IC50 (in assay [1]; at His-Brd4(44-477)) were 5.2 µM and 0.11 µM, respectively.
The matching figures for `Cc1cc(N2C(=O)c3nn(C)c(O)c3C2c2ccc(Cl)cc2)cn(C)c1=O` (centres unmarked) [Example 73, 4-(4-chlorophenyl)-5-(1,5-dimethyl-6-oxo-1,6-dihydropyridin-3-yl)-3-hydroxy-2-methyl-4,5-dihydropyrrolo[3,4-c]pyrazol-6(2H)-one]: 4.4 µM, greater than 10 µM, greater than 10 µM, 2 µM and 0.21 µM.
For `CCc1nn(C2CC2)c2c1C(c1ccc(Cl)cc1)N(c1cc(OC)c3nnc(C)n3c1)C2=O` (centres unmarked) [Example 84, 4-(4-chlorophenyl)-1-cyclopropyl-3-ethyl-5-(8-methoxy-3-methyl-[1,2,4]triazolo[4,3-a]pyridin-6-yl)-4,5-dihydropyrrolo[3,4-c]pyrazol-6(1H)-one] the same measures were 0.098 µM, 0.163 µM, greater than 10 µM, greater than 37 µM and 0.028 µM.
On to `COc1ncc(-n2nc3c(c2C(C)C)C(c2ccc(Cl)cc2)N(c2ccc4onc(C)c4c2)C3=O)c(OC)n1` (centres unmarked) [Example 54, 4-(4-chlorophenyl)-2-(2,4-dimethoxypyrimidin-5-yl)-3-isopropyl-5-(3-methylbenzo-[d]isoxazol-5-yl)-4,5-dihydropyrrolo[3,4-c]pyrazol-6(2H)-one], for which the IC (total growth inhibition) is 0.661 µM with MV-4-11 cells, 1.43 µM with THP-1 cells and greater than 10 µM with K-562 cells. Also, the IC50 in assay [1] is greater than 37 µM; at His-Brd4(44-477), 0.26 µM.
For `CCn1nc(C)c2c1C(=O)N(c1cc(C)c3nnc(C)n3c1)C2c1ccc(Cl)cc1` (centres unmarked) [Example 116, 4-(4-chlorophenyl)-5-(3,8-dimethyl-[1,2,4]triazolo[4,3-a]pyridin-6-yl)-1-ethyl-3-methyl-4,5-dihydropyrrolo[3,4-c]pyrazol-6(1H)-one] the same measures were 0.0301 µM, 0.0354 µM, greater than 10 µM, 15 µM and 0.032 µM.
For `COc1ncccc1-n1nc(C)c2c1C(=O)N(c1cc(C)c3nnc(C)n3c1)C2c1ccc(Cl)cc1` (centres unmarked) [Example 101, 4-(4-chlorophenyl)-5-(3,8-dimethyl-[1,2,4]triazolo[4,3-a]pyridin-6-yl)-1-(2-methoxypyridin-3-yl)-3-methyl-4,5-dihydropyrrolo[3,4-c]pyrazol-6(1H)-one], the values for the IC (total growth inhibition) in the assay with MV-4-11 cells, in the assay with THP-1 cells and with K-562 cells were 0.0447 µM, 0.102 µM and greater than 10 µM, respectively. The IC50 worked out at 19 µM in assay [1] and 0.034 µM at His-Brd4(44-477).
In the case of `Cc1cc(N2C(=O)c3nn(C4COC4)c(C)c3C2c2ccc(Cl)cc2)cn2c(C)nnc12` (centres unmarked) [Example 136, 4-(4-chlorophenyl)-5-(3,8-dimethyl-[1,2,4]triazolo[4,3-a]pyridin-6-yl)-3-methyl-2-(oxetan-3-yl)-4,5-dihydropyrrolo[3,4-c]pyrazol-6(2H)-one], the IC (total growth inhibition) in the assay with MV-4-11 cells is 0.041 µM; with THP-1 cells, 0.186 µM; in the assay with K-562 cells it was greater than 10 µM. Moreover, the IC50 in assay [1] was determined as 4.3 µM; at His-Brd4(44-477), 0.11 µM.
